Data set [1] concerns Mycobacterium tuberculosis. The data set is described as follows: Antibacterial activity against Mycobacterium tuberculosis H37Rv ATCC 27294 assessed as reduction in microbial growth in GAST media. The format is functional.
Data set [2] in a line: Kinetic aqueous solubility of the compound in 2.5% DMSO/PBS at pH 7.4 incubated for 2 hrs by nephelometry analysis. To be noted: PBS with 2.5% DMSO, read-out: Kinetic_solubility. The format is physicochemical.
For data set [3], the system named is Mycobacterium tuberculosis. Put plainly: Antibacterial activity against Mycobacterium tuberculosis H37Rv ATCC assessed as reduction in bacterial growth by microdilution method. In kind it is functional.
The subject of data set [4] is Mycolicibacterium smegmatis. The data set is described as follows: Antibacterial activity against Mycobacterium smegmatis assessed as inhibition of bacterial growth in the presence of NADH II dehydrogenase. In kind it is functional, organism-based.
The test system of data set [5] is Mycobacterium tuberculosis. The data set is described as follows: Antimycobacterial activity against Mycobacterium tuberculosis H37Rv after 14 days. To be noted: 336 h, time 14 day. The format is functional.
Data set [6] relates to Mycobacterium tuberculosis. The data set is described as follows: Antitubercular activity against Mycobacterium tuberculosis H37Rv infected in THP-1 cells assessed as intracellular bacterial growth measured over 6 days. In kind it is functional. The note with it: 144 h, time 6 day.
The test system of data set [7] is Mycobacterium tuberculosis. Put plainly: Antimycobacterial activity against Mycobacterium tuberculosis H37Rv. The format is functional, organism-based.
For data set [8], the system named is Mycobacterium tuberculosis. The data set is described as follows: Antitubercular activity against Mycobacterium tuberculosis H37Rv incubated for 14 days in GAST/FE medium by Alamar blue assay. The note with it: 336 h, time 14 day. The format is functional.
In data set [9] the test system is Mycobacterium tuberculosis. Put plainly: Antibacterial activity against Mycobacterium tuberculosis H37Rv ATCC 25618 assessed as complete inhibition of bacterial growth measured after 5 days by spectrophotometry method. The format is functional. To be noted: H37Rv ATCC 25618, 120 h, time 5 day.
The subject of data set [10] is Mycobacterium tuberculosis. The data set is described as follows: Antitubercular activity against Mycobacterium tuberculosis H37Rv assessed as inhibition of bacterial growth by fluorescence based analysis. The format is functional.
In data set [11] the test system is Mycobacterium tuberculosis. The data set is described as follows: Antitubercular activity against Mycobacterium tuberculosis H37Rv assessed as growth inhibition in presence of ATP. The format is functional.
The test system of data set [12] is Mycobacterium tuberculosis. Put plainly: Inhibition of ATP synthesis in Mycobacterium tuberculosis H37Rv derived membrane vesicle incubated for 60 mins by luciferase based assay. The format is functional. The note with it: 1 h.
In data set [13] the test system is Mycobacterium tuberculosis. The data set is described as follows: Antibacterial activity against ATP synthesis in Mycobacterium tuberculosis H37Rv derived membrane vesicle incubated for 60 mins by luciferase based assay. In kind it is functional. To be noted: 1 h.
Data set [14] is described as follows: Inhibition of Mycobacterium smegmatis ptpB expressed in Escherichia coli […] cells in the presence of ATP cells using 6,8-difluoromethylumbelliferyl phosphate as substrate incubated for 30 mins by fluorescence based assay. On the set-up: species or system Mycolicibacterium smegmatis.
For data set [15], the system named is Mycobacterium tuberculosis. Put plainly: Antibacterial activity against Mycobacterium tuberculosis H37Rv in macrophages by CLSI broth microdilution method. The format is functional.
Data set [16] has as its system Mycobacterium tuberculosis. Put plainly: Antibacterial activity against Mycobacterium tuberculosis H37Rv assessed as reduction bacterial growth after 14 days by micro broth dilution method. The format is functional. To be noted: 336 h, time 14 day.
Data set [17] in a line: Inhibition of Mycobacterium tuberculosis H37Rv ATP synthase.
The test system of data set [18] is Mycobacterium tuberculosis. The data set is described as follows: Antibacterial activity against Mycobacterium tuberculosis H37Rv in the presence of ATP synthase. The format is functional.
Data set [19] deals with Mycobacterium tuberculosis. The data set is described as follows: Antibacterial activity against Mycobacterium tuberculosis H37Rv-MA ATCC 27294 assessed reduction in bacterial growth by microplate alamar blue assay. In kind it is functional.
Data set [20] deals with Mycobacterium tuberculosis. The data set is described as follows: Antibacterial activity against Mycobacterium tuberculosis cytochrome bd oxidase assessed as reduction in bacterial growth in the presence of resazurin reduction under microplate alamarBlue assay. The format is functional.
In data set [21] the test system is Mycobacterium tuberculosis. Put plainly: Antibacterial activity against Mycobacterium tuberculosis H37Rv assessed as reduction in bacterial growth in the presence of resazurin reduction under microplate alamarBlue assay. In kind it is functional.
Data set [22] has as its system Mycobacterium tuberculosis. Put plainly: Antibacterial activity against Mycobacterium tuberculosis cytochrome bd oxidase assessed as reduction in bacterial growth in the presence of resazurin reduction under by microdilution method. The format is functional.
Data set [23] relates to Mycobacterium tuberculosis. Put plainly: Antibacterial activity against Mycobacterium tuberculosis H37Rv assessed as inhibition of bacterial growth by microdilution method. The format is functional.
Data set [24] is described as follows: Inhibition of Mycobacterium tuberculosis TFP incubated for 60 mins by UPLC based assay.
For data set [25], the system named is Mycobacterium tuberculosis. Put plainly: Antibacterial activity against Mycobacterium tuberculosis H37Rv assessed as greater inhibition of microbial growth in presence of depletion of ATP levels by microplate alamar blue assay. In kind it is functional, organism-based.
Data set [26] is described as follows: Lipophilicity, log P of the compound at pH 6.5. To be noted: buffer. In kind it is physicochemical.
Data set [27] relates to Mycobacterium tuberculosis. Put plainly: Antibacterial activity against Mycobacterium tuberculosis assessed as inhibition of bacterial growth in the presence of NADH II dehydrogenase. In kind it is functional, organism-based.
The test system of data set [28] is Mycobacterium tuberculosis. The data set is described as follows: Antibacterial activity against Mycobacterium tuberculosis H37Rv after 7 days by resazurin dye-based assay. The format is functional. To be noted: time 7 day.
The test system of data set [29] is Mycobacterium tuberculosis. Put plainly: Antibacterial activity against Mycobacterium tuberculosis H37Rv-LP ATCC 25618 assessed reduction in bacterial growth by microplate alamar blue assay. In kind it is functional.
The subject of a further data set is HepG2. Put plainly: Cytotoxicity against human HepG2 cells assessed as cell viability at 100 uM by MTT assay. The note with it: read-out: TD50 (the source's name). In kind it is functional.

Structures are written as SMILES. Values after ≈ are worked out from the molar mass of the structure shown. Starred links: 1 amine or outer side, 2 acyl side, 3 side chain; linkers in the order of their positions; H or OH if unused. Non-standard residues stand in square brackets, D forms with d. Residues, ends and D or L forms follow the SMILES beside them. ξ: configuration not given here. *: point of attachment. X1 = CCC(=O)C[C@@H](O)C[C@@H](C)C[C@H](N[*:1])C(=O)[*:2]; Alaψ(CH2NMeCH2CH2OH) = C[C@@H](CN(C)CCO)N*; Decanoyl(2R-Me) = CCCCCCCC[C@@H](C)C(=O)*; Ile(3ξ) = CCC(C)[C@H](N)C(=O)O; ξβ3hP = O=C(O)CC1CCCN1; Aib = CC(C)(N)C(=O)O

As to `O=C(CSc1nc2ccccc2c(=O)[nH]1)NCC1CCC(F)(F)CC1`, the minimal inhibitory concentration (MIC) in data set [1] was found to be 0.8 µM. Further, the solubility kinetic at 2 h in data set [2] is 250 µM (≈ 91.9 µg/mL). The IC90 in [3] is 5100 nM.
For `O=C(CSc1nc2cccc(F)c2c(=O)[nH]1)NC1CCC(F)(F)CC1`, the IC50 in data set [4] was found to be 10.7 nM.
In the case of `O=C(/C=C/c1cscn1)N1CCN(Cc2ccc3c(c2)OCO3)CC1`, the figures for the minimal inhibitory concentration (MIC) in data set [5] and in [6] were 0.1 µM (≈ 0.0357 µg/mL) and 0.6 µM (≈ 0.214 µg/mL), respectively.
Take `Cc1ccn2c(C(=O)NCc3cccc(OC(C)C)c3)c(C)nc2c1`: the IC50 in data set [7] came out at 390 nM.
In turn, `Cc1ccc(-c2nc3ccc(C)cn3c2CC(=O)N(C)C)cc1` [ZOLPIDEM] returned an MIC in data set [8] of 10 µM (≈ 3.07 µg/mL).
With `CCc1nc2ccc(C)cc2n1CCCNc1ccc(C)cc1`, the MIC99 in data set [9] was 0.061 µM (≈ 0.0188 µg/mL).
In turn, `CCc1ccn2c(C(=O)NCc3ccc(C)cc3)c(C)nc2c1` yielded a minimal inhibitory concentration (MIC) in data set [8] of 0.004 µM (≈ 0.00123 µg/mL).
Turning to `Cc1ccc2nc(C)c(C(=O)NCc3ccc(Cl)nc3)n2c1`, the MIC in data set [10] is 5 µM (≈ 1.57 µg/mL).
Regarding `O=C(CNC1CCCCC1)N(c1ccccc1)c1ccccc1`, in [11], the MIC was 5.23 µg/mL.
Regarding `Nc1c2c(nc3sc4c(c13)CCCCC4)CCCC2`, half-maximal inhibition in [12] (IC50) was put at 3400 nM. For the same molecule, the MIC50 in data set [13] came out at 1.7 µM (≈ 0.463 µg/mL).
In turn, `Cc1ccn2c(C(=O)NCc3ccccc3)c(C)nc2c1` gave a concentration for half-maximal inhibition (IC50) in [7] of 150 nM.
As to `COc1ccc(/C=C2/S/C(=N/N=C/c3ccccc3O)NC2=O)cc1`, the IC50 in [14] was determined as 312 nM. In addition, the MIC90 in data set [15] was found to be 4 µg/mL (≈ 11.3 µM); in data set [16], 0.5 µg/mL (≈ 1.41 µM).
Take `CN(C)CCN1CCN(c2ccc(-c3cc4cc(Br)ccc4nc3OCc3ccc4ccccc4c3)cc2)CC1`: in data set [17], inhibition was half-maximal at 38800 nM (IC50). The minimal inhibitory concentration (MIC) in [18] turned out to be 0.44 µg/mL.
Take `Cc1ccc2nc(C)c(C(=O)NCc3ccc(C(F)(F)F)cc3)n2c1`: the MIC in data set [10] is 0.03 µM (≈ 0.0104 µg/mL).
For `CCc1nc2ccccc2n1CCCCSc1nc(-c2ccccc2)cs1`, in [19], the MIC50 is 5.3 µM (≈ 2.09 µg/mL).
With `CCc1nc2ccccc2n1CCCCNc1ccccc1`, the MIC99 in [9] came to 0.47 µM (≈ 0.138 µg/mL).
For `O=C(CNC1CCCC1)N(c1ccccc1)c1ccccc1`, the minimum inhibitory concentration (MIC) in [11] turned out to be 6.25 µg/mL.
`COc1ccc(CNC(=O)c2c(C)nc3ccc(Br)cn23)cc1`: the MIC in data set [20] is < 0.024 µM; in [21] it was 0.15 µM; in data set [22], < 0.024 µM; in data set [23], > 50 µM.
On to `O=C(/C=C/c1cccs1)N1CCN(Cc2ccc3c(c2)OCO3)CC1`, for which the results for the minimum inhibitory concentration (MIC) in data set [5] and in data set [6] were 0.05 µM (≈ 0.0178 µg/mL) and 0.4 µM (≈ 0.143 µg/mL), respectively. The IC50 in [24] came out at 0.1 µg/mL (≈ 0.281 µM).
For the molecule `CCCCNc1nc(CC)nc2sc(C)cc12`, the 50% inhibitory concentration (IC50) in data set [25] was 840 nM.
Take `CCCCCCCC[C@@H](C)C(=O)N1CCCC1CC(=O)N[C@@H](C[C@H](C)C[C@H](O)CC(=O)CC)C(=O)NC(C)(C)C(=O)NC(C)(C)C(=O)N[C@H](C(=O)N[C@H](C(=O)NC(C)(C)C(=O)NC(C)(C)C(=O)N[C@@H](C)CN(C)CCO)C(C)C)C(C)CC` (stereo partly drawn) ({Decanoyl(2R-Me)}-[ξβ3hP][X1][Aib][Aib][Ile(3ξ)]V[Aib][Aib]-{Alaψ(CH2NMeCH2CH2OH)}): the logD in data set [26] amounted to 4.37.
Turning to `O=C(CSc1nc2ccccc2c(=O)[nH]1)NC1CCCCC1`, the MIC in data set [1] stood at 0.3 µM. Also, the solubility kinetic at 2 h in [2] turned out to be 83 µM (≈ 26.3 µg/mL).
For `CN(C)Cc1ccc(-c2cc3cc(Br)ccc3nc2OCc2ccncc2)cc1`, the IC50 in [17] amounted to 20300 nM. In addition, the minimal inhibitory concentration (MIC) in data set [18] was 0.43 µg/mL.
Take `C=CCN1NC(C(=O)N2CCSCC2)C2CC(NCc3ccc(Cl)s3)CCC21` (stereo not drawn): the IC50 in data set [27] amounted to 64.7 nM.
With `CCSc1nc(NC)c2ccc(F)c(F)c2n1`, in [28], the TD50 is 0.02 µg/mL.
Consider `O=C(CSc1nc2ccccc2c(=O)[nH]1)NC1CCC(F)(F)CC1`, for which the MIC in data set [1] turned out to be 0.5 µM.
Consider `CCc1nc2ccc(C)cc2n1CCCCOc1ccccc1`, for which, in data set [29], the MIC50 turned out to be 0.34 µM (≈ 0.105 µg/mL).
In the case of `CCNc1nc(SCC)nc2ccccc12`, in the data set with HepG2, the CC50 was > 5 µg/mL. This molecule gave a TD50 in data set [28] of 0.09 µg/mL.
